Here are results for 16 molecules from patent US8946282B2, “Indolin-2-one derivatives as protein kinase inhibitors” (Annji Pharmaceutical Co., Ltd., priority 2012, dated 2015).

Data set [1] addresses aurora B (Homo sapiens, UniProt Q96GD4). Description: radioisotope-based P81 filter-binding assay, aurora B kinase. It counts as biochemical. The following applies: averaged from two independent dose-response curves; read-out: Enzyme assay IC50 Aur B. How it is done: (§1) Compounds of formula (I)-(IV) were evaluated for abilities in inhibiting protein kinases aurora B and FLT-3 activity using radioisotope-based P81 filter-binding assay (Table 1).

Data set [2] has as its system HepG2 human hepatocellular carcinoma cells. Description: anti-proliferation, SRB colorimetric assay, HepG2. The format is cell-based. The conditions noted are these: concentration required for 50% growth inhibition, read-out: IC50 (μM, mean ± S.D.). The source says: HCT116 human colorectal carcinoma cells (Table 3), HepG2 human hepatocellular carcinoma cells (Table 4), and MV4-11 human acute myelomonocytic leukemia cells (Table 5).
In general terms: In SRB staining, fixed cells bind dye roughly in proportion to their protein.

The target of data set [3] is T1, FLT-3 (Homo sapiens, UniProt P36888).
T1 sequence (P36888 27-993): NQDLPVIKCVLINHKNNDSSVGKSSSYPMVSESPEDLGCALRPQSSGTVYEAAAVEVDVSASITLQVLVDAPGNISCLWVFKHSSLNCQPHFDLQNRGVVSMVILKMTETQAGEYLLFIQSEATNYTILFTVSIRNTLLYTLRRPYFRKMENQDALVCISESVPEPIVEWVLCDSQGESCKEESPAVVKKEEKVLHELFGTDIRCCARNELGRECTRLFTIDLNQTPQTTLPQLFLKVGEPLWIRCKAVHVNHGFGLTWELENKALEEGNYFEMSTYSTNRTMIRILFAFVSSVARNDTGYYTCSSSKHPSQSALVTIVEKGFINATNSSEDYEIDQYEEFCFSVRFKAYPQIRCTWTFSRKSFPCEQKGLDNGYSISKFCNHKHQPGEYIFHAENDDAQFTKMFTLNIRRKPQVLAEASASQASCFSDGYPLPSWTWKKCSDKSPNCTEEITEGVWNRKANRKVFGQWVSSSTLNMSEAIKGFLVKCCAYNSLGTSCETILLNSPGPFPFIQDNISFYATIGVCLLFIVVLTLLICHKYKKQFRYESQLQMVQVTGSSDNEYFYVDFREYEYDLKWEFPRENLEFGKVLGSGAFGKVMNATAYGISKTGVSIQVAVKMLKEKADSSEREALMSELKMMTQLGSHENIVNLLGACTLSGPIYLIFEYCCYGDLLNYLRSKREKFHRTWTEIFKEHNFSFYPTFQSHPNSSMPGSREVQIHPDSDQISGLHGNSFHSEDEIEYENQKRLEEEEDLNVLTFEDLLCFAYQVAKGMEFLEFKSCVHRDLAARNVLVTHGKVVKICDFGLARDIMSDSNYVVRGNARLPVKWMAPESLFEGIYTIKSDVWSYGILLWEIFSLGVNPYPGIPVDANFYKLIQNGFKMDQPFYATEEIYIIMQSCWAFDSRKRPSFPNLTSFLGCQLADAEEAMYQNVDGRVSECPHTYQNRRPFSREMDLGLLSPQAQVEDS
Put plainly: radioisotope-based P81 filter-binding assay, FLT-3 kinase. It counts as biochemical. The conditions noted are these: averaged from two independent dose-response curves; read-out: Enzyme assay IC50 FLT-3. How it is done: as §1

Data set [4] relates to MV4-11 human acute myelomonocytic leukemia cells. Description: anti-proliferation, SRB colorimetric assay, MV4-11. It counts as cell-based. The conditions noted are these: concentration required for 50% growth inhibition. As for the experimental part: HCT116 human colorectal carcinoma cells (Table 3), HepG2 human hepatocellular carcinoma cells (Table 4), and MV4-11 human acute myelomonocytic leukemia cells (Table 5). Cells were treated with the test compound and the concentration required for 50% growth inhibition (IC50) determined by sulfomodamine B (SRB) colorimetric assay.

Sequence of aurora B (Q96GD4 whole entry): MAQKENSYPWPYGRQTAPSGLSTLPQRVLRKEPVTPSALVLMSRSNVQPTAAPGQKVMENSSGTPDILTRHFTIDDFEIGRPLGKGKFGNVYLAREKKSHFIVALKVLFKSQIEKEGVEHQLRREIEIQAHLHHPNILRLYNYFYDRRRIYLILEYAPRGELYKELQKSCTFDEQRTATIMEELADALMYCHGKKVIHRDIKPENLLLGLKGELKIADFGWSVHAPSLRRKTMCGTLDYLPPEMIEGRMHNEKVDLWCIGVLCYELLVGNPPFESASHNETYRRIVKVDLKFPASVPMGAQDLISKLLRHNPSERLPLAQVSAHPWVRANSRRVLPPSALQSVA

What is called IC50 is the concentration at which inhibition is half-maximal. As usually defined, the melting point is the temperature, or range, at which the solid turns liquid. Regarding `O=C(NC(=O)c1ccccc1)Nc1ccc2c(c1)NC(=O)/C2=C\c1ccc[nH]1` [D24, (Z)—N-(3-((1H-pyrrol-2-yl)methylene)-2-oxoindolin-6-ylcarbamoyl)benzamide], the melting point is 290 to 295 °C (dec.). In addition, in data set [1], the IC50 came out at 5.3 nM. In addition, in data set [2], the IC50 was 0.89 ± 0.03 µM. Besides, in data set [3], the IC50 was greater than 10000 nM.

`O=C(NC(=O)c1ccc(C(F)(F)F)cc1)Nc1ccc2c(c1)NC(=O)/C2=C\c1ccc[nH]1` [D27, (Z)—N-(3-((1H-pyrrol-2-yl)methylene)-2-oxoindolin-6-ylcarbamoyl)-4-(trifluoromethyl)benzamide] registered a melting point greater than 300 °C. The IC50 in data set [1] amounted to 40.9 nM. Moreover, the IC50 in data set [2] stood at 0.86 ± 0.02 µM. Also, the IC50 in data set [3] is greater than 1000 nM.

Regarding `Cc1ccc(C(=O)NC(=O)Nc2ccc3c(c2)NC(=O)/C3=C\c2ccc[nH]2)cc1` [D29, (Z)—N-(3-((1H-pyrrol-2-yl)methylene)-2-oxoindolin-6-ylcarbamoyl)-4-methylbenzamide], the melting point was 290 to 295 °C (dec.). Besides, in data set [1], the IC50 came out at 18.4 nM. The IC50 in data set [2] turned out to be 0.93 ± 0.01 µM. Also, in data set [3], the half-maximal inhibitory concentration (IC50) was greater than 1000 nM.

In the case of `COc1cc(OC)cc(C(=O)NC(=O)Nc2ccc3c(c2)NC(=O)/C3=C\c2ccc[nH]2)c1` [D30], the melting point is 276 to 281 °C (dec.). The IC50 in data set [1] stood at 29.8 nM. Besides, the half-inhibitory concentration (IC50) in data set [2] was 0.86 ± 0.02 µM.

For `Cc1[nH]c(/C=C2\C(=O)Nc3cc(NC(=O)NC(=O)c4ccc(Cl)c(C(F)(F)F)c4)ccc32)c(C)c1CCC(=O)O` [D37, (Z)-3-(5-((6-(3-(4-chloro-3-(trifluoromethyl)benzoyl)ureido)-2-oxo-indolin-3-ylidene)methyl)-2,4-dimethyl-1H-pyrrol-3-yl)propanoic acid], the IC50 is 1.6 nM in data set [1], 0.09 ± 0.04 µM in data set [2] and 2.4 nM in data set [3].

Turning to `Cc1cc(C)c(/C=C2\C(=O)Nc3cc(NC(=O)c4cccn(-c5ccc(F)cc5)c4=O)ccc32)[nH]1` [D119, (Z)—N-(3-((3,5-dimethyl-1H-pyrrol-2-yl)methylene)-2-oxoindolin-6-yl)-1-(4-fluorophenyl)-2-oxo-1,2-dihydropyridine-3-carboxamide], the melting point was greater than 300 °C. Besides, the IC50 in data set [1] was greater than 1000 nM. Besides, in data set [4], the IC50 was found to be 1.39 nM. In addition, the IC50 in data set [3] was determined as 8.1 nM.

For the molecule `Cc1[nH]c(/C=C2\C(=O)Nc3cc(NC(=O)c4cccn(-c5ccc(F)cc5)c4=O)ccc32)c(C)c1C(=O)O` [D120, (Z)-5-((6-(1-(4-fluorophenyl)-2-oxo-1,2-dihydropyridine-3-carboxamido)-2-oxoindolin-3-ylidene)methyl)-2,4-dimethyl-1H-pyrrole-3-carboxylic acid], the melting point is greater than 300 °C. The IC50 in data set [1] was found to be 10.7 nM. This molecule also came in with a 50% inhibitory concentration (IC50) in data set [4] of 0.23 nM. Moreover, the IC50 in data set [3] is 8.1 nM.

Turning to `Cc1[nH]c(/C=C2\C(=O)Nc3cc(NC(=O)c4cccn(-c5ccc(F)cc5)c4=O)ccc32)c(C)c1CC(=O)O` [D121, (Z)-2-(5-((6-(1-(4-fluorophenyl)-2-oxo-1,2-dihydropyridine-3-carboxamido)-2-oxoindolin-3-ylidene)methyl)-2,4-dimethyl-1H-pyrrol-3-yl)acetic acid], the melting point was 275 °C (dec.). Moreover, the IC50 in data set [1] was 5 nM. Further, the IC50 in data set [4] came out at 3.03 nM. Moreover, in data set [3], the IC50 stood at 7.3 nM.

In turn, `Cc1[nH]c(/C=C2\C(=O)Nc3cc(NC(=O)c4cccn(-c5ccc(F)cc5)c4=O)ccc32)c(C)c1CCC(=O)O` [D122] showed a melting point greater than 300 °C. Further, the IC50 in data set [1] came to 5.5 nM. The IC50 in data set [4] was determined as 15.8 nM. The IC50 in data set [3] stood at 3.5 nM.

For `COC(=O)CCc1c(C)[nH]c(/C=C2\C(=O)Nc3cc(NC(=O)c4cccn(-c5ccc(F)cc5)c4=O)ccc32)c1C` [D123, (Z)-methyl-3-(5-((6-(1-(4-fluorophenyl)-2-oxo-1,2-dihydropyridine-3-carboxamido)-2-oxoindolin-3-ylidene)methyl)-2,4-dimethyl-1H-pyrrol-3-yl)propanoate], the melting point lay in the range of 266 to 270 °C. Moreover, the IC50 in data set [1] turned out to be 238 nM. The midpoint of inhibition in data set [4], the IC50, lay at 1.56 nM. Also, the IC50 in data set [3] amounted to 45.2 nM.

As to `O=C1Nc2cc(NC(=O)c3c[nH]cc(-c4ccc(F)cc4)c3=O)c(F)cc2/C1=C/c1ccc[nH]1` [D137, (Z)—N-(3-((1H-pyrrol-2-yl)methylene)-5-fluoro-2-oxoindolin-6-yl)-5-(4-fluorophenyl)-4-oxo-1,4-dihydropyridine-3-carboxamide], the melting point was greater than 300 °C. The IC50 in data set [1] is 237 nM. The molecule also showed an IC50 in data set [4] of 0.97 nM. Moreover, the IC50 in data set [3] amounted to 37.9 nM.

`Cc1[nH]c(/C=C2\C(=O)Nc3cc(NC(=O)c4c[nH]cc(-c5ccc(F)cc5)c4=O)ccc32)c(C)c1C(=O)O` [D141, (Z)-5-((6-(5-(4-fluorophenyl)-4-oxo-1,4-dihydropyridine-3-carboxamido)-2-oxoindolin-3-ylidene)methyl)-2,4-dimethyl-1H-pyrrole-3-carboxylic acid] came in with a melting point of 283 °C. Moreover, the IC50 in data set [1] came out at 3.5 nM. In data set [4], this molecule returned an IC50 of 0.81 nM. The IC50 in data set [3] was determined as 2.9 nM.

`Cc1[nH]c(/C=C2\C(=O)Nc3cc(NC(=O)c4c[nH]cc(-c5ccc(F)cc5)c4=O)ccc32)c(C)c1CC(=O)O` [D144, (Z)-2-(5-((6-(5-(4-fluorophenyl)-4-oxo-1,4-dihydropyridine-3-carboxamido)-2-oxoindolin-3-ylidene)methyl)-2,4-dimethyl-1H-pyrrol-3-yl)acetic acid] returned a melting point greater than 300 °C. The IC50 in data set [1] is 2.3 nM. The molecule also showed an IC50 in data set [4] of 22.8 nM. Also, the IC50 in data set [3] was 1.3 nM.

The molecule `Cc1[nH]c(/C=C2\C(=O)Nc3cc(NC(=O)c4c[nH]cc(-c5ccc(F)cc5)c4=O)ccc32)c(C)c1CCC(=O)O` [D145, (Z)-3-(5-((6-(5-(4-fluorophenyl)-4-oxo-1,4-dihydropyridine-3-carboxamido)-2-oxoindolin-3-ylidene)methyl)-2,4-dimethyl-1H-pyrrol-3-yl)propanoic acid] displayed a melting point greater than 300 °C. For the same molecule, the IC50 in data set [1] came out at 3.4 nM. This molecule also came in with an IC50 in data set [4] of 9.45 nM. In addition, in data set [3], the IC50 worked out at 1.6 nM.

For the molecule `COc1ccc(-c2c[nH]cc(C(=O)Nc3ccc4c(c3)NC(=O)/C4=C\c3[nH]c(C)c(C(=O)N4CCOCC4)c3C)c2=O)cc1` [D155, (Z)—N-(3-((3,5-dimethyl-4-(morpholine-4-carbonyl)-1H-pyrrol-2-yl)methylene)-2-oxoindolin-6-yl)-5-(4-methoxyphenyl)-4-oxo-1,4-dihydropyridine-3-carboxamide], the melting point was 205 °C (dec.). The IC50 in data set [1] turned out to be 42.8 nM. This molecule displayed an IC50 in data set [4] of 1.96 nM. Also, the IC50 in data set [3] was 34.9 nM.

`COc1ccc(-c2c[nH]cc(C(=O)Nc3ccc4c(c3)NC(=O)/C4=C\c3[nH]c(C)c(C(=O)NCCN4CCCC4)c3C)c2=O)cc1` [D156, (Z)—N-(3-((3,5-dimethyl-4-((2-(pyrrolidin-1-yl)ethyl)carbamoyl)-1H-pyrrol-2-yl)methylene)-2-oxoindolin-6-yl)-5-(4-methoxyphenyl)-4-oxo-1,4-dihydropyridine-3-carboxamide] yielded a melting point greater than 300 °C. The IC50 in data set [1] is 19.2 nM. This molecule had an IC50 in data set [4] of 2.57 nM. Also, in data set [3], the 50% inhibitory concentration (IC50) worked out at 11.6 nM.
